Laboratory results: patent publication US6737383B1, “Herbicidal oxadiazolidines” (priority 1999, dated 2004)

Assays:
cocklebur = assay: Test B pre/postemergence cocklebur; assay type: in vivo, Xanthium strumarium
How it was run: (§1)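 Test chemicals in a non-phytotoxic solvent mixture with surfactant were sprayed preemergence onto planted seeds and postemergence onto plants 2 to 18 cm tall (1- to 4-leaf stage). After twelve to sixteen days in a greenhouse, injury was visually rated against untreated controls from 0 (no effect) to 10 (complete control).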

rice = assay: Test B flood test rice; assay type: in vivo, Oryza sativa
How it was run: (§2)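 Read-out is a visual response score from 0 (no effect) to 10 (complete control), assigned by comparison with untreated controls. Treatment was applied at the 2-leaf stage, and plants stayed in the greenhouse for twelve to sixteen days before scoring.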

rape = assay: Test B pre/postemergence rape; assay type: in vivo, Brassica napus
How it was run: as §1

morningglory = assay: Test B pre/postemergence morningglory; assay type: in vivo, Ipomoea hederacea
How it was run: as §1

bamyardgrass = assay: Test B flood test barnyardgrass; assay type: in vivo, Echinochloa crus-galli
How it was run: as §2

blackgrass = assay: Test B pre/postemergence blackgrass; assay type: in vivo, Alopecurus myosuroides
How it was run: as §1

smallflower flatsedge = assay: Test B flood test smallflower flatsedge; assay type: in vivo, Cyperus difformis
How it was run: as §2

velvetleaf = assay: Test B pre/postemergence velvetleaf; assay type: in vivo, Abutilon theophrasti
How it was run: as §1

surinam grass = assay: Test B pre/postemergence surinam grass; assay type: in vivo, Brachiaria decumbens
How it was run: as §1

giant foxtail = assay: Test B pre/postemergence giant foxtail; assay type: in vivo, Setaria faberii
How it was run: as §1

wild oat = assay: Test B pre/postemergence wild oat; assay type: in vivo, Avena fatua
How it was run: as §1

crabgrass = assay: Test B pre/postemergence crabgrass; assay type: in vivo, Digitaria sanguinalis
How it was run: as §1

sugar beet = assay: Test B pre/postemergence sugar beet; assay type: in vivo, Beta vulgaris
How it was run: as §1

corn = assay: Test B pre/postemergence corn; assay type: in vivo, Zea mays
How it was run: as §1

pigweed = assay: Test B pre/postemergence pigweed; assay type: in vivo, Amaranthus retroflexus
How it was run: as §1

bedstraw = assay: Test B pre/postemergence bedstraw; assay type: in vivo, Galium aparine
How it was run: as §1

[1] = Preemergence, Rate 62 g/ha, scale of 0 to 10 where 0 is no effect and 10 is complete control
[2] = Preemergence, Rate 125 g/ha, 0 is no effect, 10 is complete control
[3] = Preemergence, Rate 250 g/ha, scale 0 to 10, 0 is no effect, 10 is complete control
[4] = Preemergence, Rate 500 g/ha, scale 0 to 10 (0 no effect, 10 complete control)
[5] = Rate 62 g/ha, Postemergence, scale of 0 to 10 where 0 is no effect and 10 is complete control
[6] = Rate 125 g/ha, Postemergence, scale 0 to 10
[7] = Rate 500 g/ha, Postemergence, scale 0 to 10
[8] = Rate 62 g/ha, headed Pre-emergence (flood test species), scale 0 to 10 (0 no effect, 10 complete control)
[9] = Rate 125 g/ha, Pre-emergence, flood test species, scale 0 to 10 where 0 is no effect and 10 is complete control
[10] = Rate 250 g/ha, Pre-emergence, flood-test species, scale 0 to 10, 0 is no effect, 10 is complete control
[11] = Rate 500 g/ha, headed Pre-emergence (flood test species), scale 0 to 10 (0 no effect, 10 complete control)

COc1nc(OC)nc(N(C(=O)n2oc(=O)n(-c3c(C)cccc3C)c2=O)C(C)C)n1 [Compound 180]
0: Cocklebur plant response rating (cocklebur; [1]) | Cocklebur plant response rating (0 to 10 scale) (cocklebur; [2]) | Cocklebur plant response rating (cocklebur; [3]) | Cocklebur plant response rating (cocklebur; [4]) | Cocklebur plant response rating (cocklebur; [5]) | Cocklebur plant response rating (cocklebur; [6]) | Plant response rating (0 to 10; 0 is no effect, 10 is complete control), Cocklebur (cocklebur; Rate 250 g/ha, Postemergence) | Cocklebur plant response rating (cocklebur; [7]) | Rice plant response rating (rice; [8]) | Rice plant response rating (rice; [9]) | Rice plant response rating (rice; [10]) | Plant response rating, Rice (rice; [11]) | Rape plant response rating (rape; [1]) | Rape plant response rating (0 to 10 scale) (rape; [2]) | Rape plant response rating (rape; [3]) | Rape plant response rating (rape; [4]) | Rape plant response rating (rape; [5]) | Rape plant response rating (rape; [6]) | Plant response rating (0 to 10; 0 is no effect, 10 is complete control), Rape (rape; Rate 250 g/ha, Postemergence) | Rape plant response rating (rape; [7]) | Morningglory plant response rating (morningglory; [1]) | Morningglory plant response rating (0 to 10 scale) (morningglory; [2]) | Morningglory plant response rating (morningglory; [3]) | Morningglory plant response rating (morningglory; [4]) | Morningglory plant response rating (morningglory; [5]) | Morningglory plant response rating (morningglory; [6]) | Plant response rating (0 to 10; 0 is no effect, 10 is complete control), Morningglory (morningglory; Rate 250 g/ha, Postemergence) | Morningglory plant response rating (morningglory; [7]) | Barnyardgrass plant response rating (bamyardgrass; [8]) | Barnyardgrass plant response rating (bamyardgrass; [9]) | Barnyardgrass plant response rating (bamyardgrass; [10]) | Plant response rating, Barnyardgrass (bamyardgrass; [11]) | Blackgrass plant response rating (blackgrass; [1]) | Blackgrass plant response rating (0 to 10 scale) (blackgrass; [2]) | Blackgrass plant response rating (blackgrass; [3]) | Blackgrass plant response rating (blackgrass; [4]) | Blackgrass plant response rating (blackgrass; [5]) | Blackgrass plant response rating (blackgrass; [6]) | Plant response rating (0 to 10; 0 is no effect, 10 is complete control), Blackgrass (blackgrass; Rate 250 g/ha, Postemergence) | Blackgrass plant response rating (blackgrass; [7]) | S. Flatsedge plant response rating (smallflower flatsedge; [8]) | S. Flatsedge plant response rating (smallflower flatsedge; [9]) | S. Flatsedge plant response rating (smallflower flatsedge; [10]) | S. Flatsedge plant response rating (smallflower flatsedge; Rate 500 g/ha, Pre-emergence, flood test species, scale 0 to 10 (0 no effect, 10 complete control)) | Velvetleaf plant response rating (velvetleaf; [1]) | Velvetleaf plant response rating (velvetleaf; [3]) | Velvetleaf plant response rating (velvetleaf; [4]) | Velvetleaf plant response rating (velvetleaf; [6]) | Plant response rating (0 to 10; 0 is no effect, 10 is complete control), Velvetleaf (velvetleaf; Rate 250 g/ha, Postemergence) | Velvetleaf plant response rating (velvetleaf; [7]) | B. signalgrass plant response rating (surinam grass; [1]) | B. signalgrass plant response rating (0 to 10 scale) (surinam grass; [2]) | B. signalgrass plant response rating (surinam grass; [3]) | B. signalgrass plant response rating (surinam grass; [4]) | B. signalgrass plant response rating (surinam grass; [5]) | B. signalgrass plant response rating (surinam grass; Rate 125 g/ha, Postemergence, scale 0 (no effect) to 10 (complete control)) | Plant response rating, B. signalgrass (surinam grass; Rate 250 g/ha, Postemergence, scale 0 to 10, 0 is no effect, 10 is complete control) | B. signalgrass plant response rating (surinam grass; Rate 500 g/ha, Postemergence, scale 0 to 10, 0 no effect, 10 complete control) | Giant foxtail plant response rating (giant foxtail; [1]) | Giant foxtail plant response rating (0 to 10 scale) (giant foxtail; [2]) | Giant foxtail plant response rating (giant foxtail; [3]) | Giant foxtail plant response rating (giant foxtail; [4]) | Giant foxtail plant response rating (giant foxtail; [5]) | Giant foxtail plant response rating (giant foxtail; [6]) | Plant response rating (0 to 10; 0 is no effect, 10 is complete control), Giant foxtail (giant foxtail; Rate 250 g/ha, Postemergence) | Giant foxtail plant response rating (giant foxtail; [7]) | Wild oats plant response rating (wild oat; [1]) | Wild oats plant response rating (wild oat; [3]) | Wild oats plant response rating (wild oat; [4]) | Wild oats plant response rating (wild oat; [6]) | Plant response rating (0 to 10; 0 is no effect, 10 is complete control), Wild oats (wild oat; Rate 250 g/ha, Postemergence) | Wild oats plant response rating (wild oat; [7]) | Crabgrass plant response rating (crabgrass; [1]) | Crabgrass plant response rating (0 to 10 scale) (crabgrass; [2]) | Crabgrass plant response rating (crabgrass; [3]) | Crabgrass plant response rating (crabgrass; [4]) | Crabgrass plant response rating (crabgrass; [5]) | Crabgrass plant response rating (crabgrass; [6]) | Plant response rating (0 to 10; 0 is no effect, 10 is complete control), Crabgrass (crabgrass; Rate 250 g/ha, Postemergence) | Crabgrass plant response rating (crabgrass; [7]) | Sugarbeets plant response rating (sugar beet; [1]) | Sugarbeets plant response rating (0 to 10 scale) (sugar beet; [2]) | Sugarbeets plant response rating (sugar beet; [3]) | Sugarbeets plant response rating (sugar beet; [4]) | Sugarbeets plant response rating (sugar beet; [5]) | Sugarbeets plant response rating (sugar beet; [6]) | Plant response rating (0 to 10; 0 is no effect, 10 is complete control), Sugarbeets (sugar beet; Rate 250 g/ha, Postemergence) | Sugarbeets plant response rating (sugar beet; [7]) | Corn plant response rating (corn; [1]) | Corn plant response rating (0 to 10 scale) (corn; [2]) | Corn plant response rating (corn; [3]) | Corn plant response rating (corn; [4]) | Corn plant response rating (corn; [5]) | Corn plant response rating (corn; [6]) | Plant response rating (0 to 10; 0 is no effect, 10 is complete control), Corn (corn; Rate 250 g/ha, Postemergence) | Corn plant response rating (corn; [7]) | Redroot pigweed plant response rating (pigweed; [1]) | Redroot pigweed plant response rating (0 to 10 scale) (pigweed; [2]) | Redroot pigweed plant response rating (pigweed; [3]) | Redroot pigweed plant response rating (pigweed; [4]) | Redroot pigweed plant response rating (pigweed; [5]) | Redroot pigweed plant response rating (pigweed; [6]) | Plant response rating (0 to 10; 0 is no effect, 10 is complete control), Redroot pigweed (pigweed; Rate 250 g/ha, Postemergence) | Redroot pigweed plant response rating (pigweed; [7]) | Bedstraw plant response rating (bedstraw; [1]) | Bedstraw plant response rating (0 to 10 scale) (bedstraw; [2]) | Bedstraw plant response rating (bedstraw; [3]) | Bedstraw plant response rating (bedstraw; [4]) | Bedstraw plant response rating (bedstraw; [5]) | Bedstraw plant response rating (bedstraw; [6]) | Plant response rating (0 to 10; 0 is no effect, 10 is complete control), Bedstraw (bedstraw; Rate 250 g/ha, Postemergence) | Bedstraw plant response rating (bedstraw; [7])
